{
  "source": "patent US5059601A",
  "about": "“Imidazolone derivatives with activity on central nervous system and antihypertensive activity, preparation methods thereof, and pharmaceutical compositions containing them” (Istituto Lusofarmaco d'Italia S.p.A., priority 1989, dated 1991)",
  "key": {"[1]": {"test": "toxicity in rat (DL50, oral)", "details": "in vivo, read-out: toxicity in rat expressed as DL50"}, "SHR rat": {"test_system": "SHR rat", "test": "antihypertensive activity in SHR rat after oral administration", "type": "in vivo", "details": "dose of 10 mg/kg/os", "excerpt": "Said compounds have in vitro good affinity against D2, 5-HT2, α1 receptors determined towards [3H]Spiperone, [3H]-ketanserine, and [3H]-prazosine respectively, using the methods described by Y.Z. Fields, R.D. Reisine, H.I. Yamamura, Brain Research 136, 578 (1977); Y.E. Leysen, C.Y.E. Nyemegers, Y.M. Van Neuten, P.M. Endladurong, Mol Pharmacol. 21, 322 (1981); P. Greengrass, R. Bremner, Eur. J. Pharmacol. 55, 323 (1979). They show a reduced toxicity in vivo, a good activity on central nervous system in various behaviour tests (e.g. stereotypy caused by apomorfine, central dopaminergic neuronal firing) and a good antihypertensive activity (determined in SHR rat after oral administration using the method reported by J. Pfeffer and others, J. Lab. Clin. Med. 78, 957 (1971))."}},
  "data": [
    {"molecule": "COc1ccccc1N1CCN(CCc2[nH]c(=O)[nH]c2-c2ccc(F)cc2)CC1", "note": "[4-(4-fluorophenyl)-1,3-dihydro-5-[2-(4-(2-methoxyphenyl)-1-piperazinyl)ethyl]-2H-imidazol-2-one]", "values": [
      {"measurement": "LD50", "setting": "[1]", "value": "> 2000", "unit": "mg/kg"},
      {"measurement": "decrease in systolic pressure", "setting": "SHR rat", "value": "about 21%"}
    ]}
  ]
}
